# Measured values taken from paper PMC7587979 (Molecules, 2020).
# Where “and” joins values, the source holds several entries; their conditions need not be identical. Identical values can stand only once. Like-named read-outs stand apart in the source and are kept apart here.
# Experiments:
# [1] = system: CQ-resistant P. falciparum FcB1/Colombia strain; test: In vitro growth inhibition of P. falciparum ([3H]-hypoxanthine incorporation); format: cell-based, Plasmodium falciparum; conditions: for fold more active in comparison to the diester compound 17: ratio of IC50 against P. falciparum FcB1 versus 17; for times more active than FSM: ratio of IC50 against P. falciparum FcB1 versus FSM
# Method: Specifically, IC50 (μM) values for the antiplasmodial activities were determined from four independent experiments as the mean values ± standard deviations. IC50 (μM) values for the cytotoxicity activities were determined from two independent experiments as the mean values ± standard deviations. IC50, SIs (ratio between IC50 (μM) of cytotoxicity/IC50 (μM) of the antiplasmodial activity), and XLogGP3 values for the FSM derivatives, hybrid, and conjugates are reported in Table 1.
# The chloroquine-resistant FcB1/Colombia strain of Plasmodium falciparum was maintained in vitro on human erythrocytes in RPMI 1640 medium supplemented by 8% (v/v) heat-inactivated human serum, at 37 °C, under an atmosphere of 3% CO2, 6% O2, and 91% N2 [45]. In vitro drug susceptibility assays were measured by [^3H]-hypoxanthine incorporation. Drug stock solutions were prepared in DMSO. Compounds were serially diluted two-fold with 100 μL of culture medium in 96-well plates. Asynchronous parasite cultures (100 μL, 1% parasitaemia and 1% final hematocrite) were then added to each well and incubated for 24 h at 37 °C prior to the addition of 0.5μCi of [^3H]-hypoxanthine (GE Healthcare, France, 1 to 5Ci·mmol/mL) per well [42]. After a further incubation of 24 h, plates were frozen and thawed. Cell lysates were then collected onto fiberglass filters and counted in a liquid scintillation spectrometer. The growth inhibition for each drug concentration was determined by comparison of the radioactivity incorporated in the treated culture with that in the control culture maintained on the same plate. The IC50 value was obtained from the drug concentration–response curve and the results were expressed as the mean values ± standard deviations determined from several independent experiments. Chloroquine and artemisinin were used as antimalarial drug controls.
# [2] = system: human primary fibroblasts (cell line AB943); test: Cytotoxicity evaluation (resazurin) and selectivity index; format: cell-based; conditions: for SI: SI = IC50 (AB943)/IC50 (P.f. FcB1); for cytotoxicity in words: judged from SI, AB943 fibroblasts
# Method: Moreover, their cytotoxicity was measured, as previously reported, upon the primary human fibroblast cell line AB943, which allowed the calculation of their selectivity index (SI).
# Specifically, IC50 (μM) values for the antiplasmodial activities were determined from four independent experiments as the mean values ± standard deviations. IC50 (μM) values for the cytotoxicity activities were determined from two independent experiments as the mean values ± standard deviations.
# Cytotoxicity evaluation was performed upon human primary fibroblasts (cell line AB943). Assays were realized in 96-well plates in DMEM + Glutamax without phenol red medium (Gibco) containing 25 mM HEPES, pH 7.3, 10% fetal calf serum under a 5% CO2 atmosphere, at 37 °C. After trypsin treatment, AB943 cells were seeded at 2000 cells per well in 100 µL. After 24 h of incubation, drugs diluted in culture medium were added (100 µL per well). Drug stock solutions were prepared in dimethyl sulfoxide (DMSO). The final DMSO concentration in the cultures remained below 1%. Control cultures were constituted of cultures treated with DMSO instead of drug. The cytotoxicity assay was based on the conversion of a redo-sensitive dye (resazurin) to a fluorescent product by viable cells. […] The percentage of inhibition of cell growth was calculated by comparing the fluorescence of cells maintained in the presence of drug to that in the absence of drug.
# [3] = set-up: method as in PMID 10477522, PMID 17887769; conditions: in vitro and in a mouse model; cited from earlier work
# [4] = CQ-resistant P. falciparum FcB1/Colombia strain, mean ± SD of four independent experiments, read-out: IC50
Molecule,"IC50 ([1]; Plasmodium falciparum, FCB1)",SI [2],further results
"C[C@@H]1CC[C@H]2[C@@H](C)C(=O)O[C@@H]3O[C@@]4(C)CC[C@@H]1[C@]32OO4 [ART, artemisinin, reference compound]",–,–,"IC50 ([1]; Plasmodium falciparum, CQ-resistant P. falciparum FcB1/Colombia strain, control drugs, unit (nM), read-out: IC50): 55 ± 13.6 nM"
"CCN(CC)CCCC(C)Nc1ccnc2cc(Cl)ccc12 (stereo not drawn) [CQ, Chloroquine, reference compound]",72 ± 7.4 nM,–,–
CCOP(=O)(CCCN(O)C(C)=O)OCC [Compound 17],–,–,"IC50 [1, 4]: > 100000 nM"
"CCOP(=O)(CCCN(O)C(=O)CCC(=O)N(O)CCCP(=O)(OCC)OCC)OCC [Compound 18, Tetraethyl-((succinylbis(hydroxyazanediyl))bis (propane-3,1-diyl))bis(phosphonate)]",> 100000 nM,–,–
"CCOP(=O)(CCCN(O)C(=O)CCC(=O)N1CCN(c2ccnc3cc(Cl)ccc23)CC1)OCC [Compound 19, Diethyl (3-(4-(4-(7-chloroquinolin-4-yl)piperazin-1-yl)-N-hydroxy-4-oxobutanamido)propyl) phosphonate]",2700 ± 500 nM,23.9,fold more active in comparison to the diester compound 17 [1]: 25–40; times more active than FSM [1]: 3.5–5.5
"CCOP(=O)(CCCN(O)C(=O)CCC(=O)NCCNc1ccnc2cc(Cl)ccc12)OCC.O=C(O)C(F)(F)F [Compound 20, 7-Chloro-N-(2-(4-((3-(diethoxyphosphoryl)propyl)(hydroxy)amino)-4oxobutanamido)ethyl)quinolin-4-aminium 2,2,2-trifluoroacetate]",4200 ± 900 nM,23.7,fold more active in comparison to the diester compound 17 [1]: 25–40; times more active than FSM [1]: 3.5–5.5
"CCOP(=O)(CCCN(O)C(=O)CC[C@H]1O[C@@H]2O[C@]3(C)CC[C@H]4[C@H](C)CC[C@@H]([C@H]1C)C24OO3)OCC [Compound 21, Diethyl (3-(N-hydroxy-3-((3S,5aS,6R,8aS,9R,10R,12R)-3,6,9-trimethyldecahydro-12H-3, 12-epoxy[1,2]dioxepino[4,3-i]isochromen-10-yl)propanamido)propyl)phosphonate]",28000 ± 11600 nM,–,–
"CCOP(=O)(CCCN(O)C(=O)CCC(=O)NNC(=O)OC(C)(C)C)OCC [Compound 26, Tert-butyl 2-(4-((3-(diethoxyphosphoryl)propyl)(hydroxy)amino)-4-oxobutanoyl) hydrazine-1-carboxylate]",86000 ± 1400 nM,–,–
"CCOP(=O)(CCCN(O)C(=O)CCC(=O)Nc1ccccc1N)OCC [Compound 27, Diethyl(3-(4-((2-aminophenyl)amino)-N-hydroxy-4-oxobutanamido)propyl) phosphonate]",81000 ± 2800 nM,–,–
"CCOP(=O)(CCCN(O)C(=O)CCC(=O)N(Cc1ccccc1)Cc1ccccc1)OCC [Compound 28, Diethyl (3-(4-(dibenzylamino)-N-hydroxy-4-oxobutanamido)propyl)phosphonate]",38700 ± 10000 nM,–,–
"CCOP(=O)(CCCN(O)C(=O)CCC(=O)Nc1ccc(Cc2ccc(NC(=O)OC(C)(C)C)cc2)cc1)OCC [Compound 29, Tert-butyl(4-(4-(4-((3-(diethoxyphosphoryl)propyl)(hydroxy)amino)-4-oxobutanamido)benzyl)phenyl) carbamate]",22700 ± 1900 nM,1.7,cytotoxicity in words [2]: cytotoxic
"CCOP(=O)(CCCN(O)C(=O)CCC(=O)NCc1ccccc1)OCC [Compound 30, Diethyl (3-(4-(benzylamino)-N-hydroxy-4-oxobutanamido)propyl) phosphonate]",> 100000 nM,–,–
"CCOP(=O)(CCCN(O)C(=O)CCC(=O)NC(c1ccccc1)c1ccccc1)OCC [Compound 31, Diethyl(3-(4-(benzhydrylamino)-N-hydroxy-4-oxobutanamido)propyl)phosphonate]",44200 ± 9500 nM,–,–
"CCOP(=O)(CCCN(O)C(=O)CCC(=O)N1CCN(C)CC1)OCC [Compound 32, Diethyl (3-(N-hydroxy-4-(4-methylpiperazin-1-yl)-4-oxobutanamido)propyl) phosphonate]",> 100000 nM,–,–
"CCOP(=O)(CCCN(O)C(=O)CCC(=O)N1CCNCC1)OCC [Compound 33, 4-(4-((3-(Diethoxyphosphoryl)propyl)(hydroxy)amino)-4-oxobutanoyl)piperazin-1-ium 2,2,2-trifluoroacetate]",> 100000 nM,–,–
"CCOP(=O)(CCCNc1ccccc1N)OCC [Compound 34, Diethyl (3-((2-aminophenyl)amino)propyl)phosphonate]",–,3.7,"IC50 [1, 4]: 8200 ± 2700 nM; cytotoxicity in words [2]: cytotoxic"
"Nc1ccccc1NCCCP(=O)(O)O [Compound 35, (3-((2-Aminophenyl)amino)propyl)phosphonic acid]",> 100000 nM,–,–
"CC(=O)N(O)CCCP(=O)(O)O [FR900098, reference compound]",7000 nM,>14.2,activity relative to FSM [3]: about twice as active as FSM
"O=CN(O)CCCP(=O)(O)O [FSM, fosmidomycin, reference compound]",–,>6.6,"fold less active than FR900098 ([1]; P. falciparum FcB1): 2; IC50 ([1]; Plasmodium falciparum, CQ-resistant P. falciparum FcB1/Colombia strain, mean ± SD of four independent experiments, read-out: IC50): 15000 ± 1700 nM"
"Diethyl(3-(4-(bis(4-(3-((3S,5aS,6R,8aS,9R,10R,12R)-3,6,9-trimethyldecahydro-12H-3,12-epoxy[1,2]dioxepino[4,3-i]isochromen-10-yl)propanamido)butyl)amino)-N-hydroxy-4-oxobutanamido)propyl)phosphonate [Compound 23]",–,34,"IC50 [1, 4]: 650 ± 260 nM; times more active than FSM [1]: 23–41"
"Diethyl(3-(N-hydroxy-4-oxo-4-((4-(3-((3S,5aS,6R,8aS,9R,10R,12R)-3,6,9-trimethyldecahydro-12H-3,12-epoxy[1,2]dioxepino[4,3-i]isochromen-10-yl)propanamido)butyl)(3-(3-((3S,5aS,6R,8aS,9R,10R,12R)-3,6,9-trimethyldecahydro-12H-3,12-epoxy[1,2]dioxepino[4,3-i]isochromen-10-yl)propanamido)propyl)amino) butanamido)propyl)phosphonate [Compound 22]",–,94 and 94.1,"IC50 [1, 4]: 360 ± 90 nM; times more active than FSM [1]: 23–41"
